Reference: publication PMC10692381 (Acta Pharmaceutica Sinica. B, 2023)

Target: PRMT3 (Homo sapiens, UniProt O60678)
Experiment: Fluorescence-based SAHH-coupled PRMT3 methylation assay
Format: biochemical

Sequence of PRMT3 (O60678 211-531): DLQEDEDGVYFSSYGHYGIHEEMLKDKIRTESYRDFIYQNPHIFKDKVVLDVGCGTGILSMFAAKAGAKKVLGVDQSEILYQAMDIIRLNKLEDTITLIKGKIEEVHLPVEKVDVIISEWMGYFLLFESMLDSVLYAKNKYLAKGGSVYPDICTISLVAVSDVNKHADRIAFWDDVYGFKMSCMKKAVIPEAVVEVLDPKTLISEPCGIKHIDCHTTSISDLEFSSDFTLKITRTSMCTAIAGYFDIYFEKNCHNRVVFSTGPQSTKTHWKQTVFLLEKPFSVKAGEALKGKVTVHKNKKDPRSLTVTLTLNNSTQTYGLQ

Row | SMILES | fold reduction in PRMT3 inhibition (compared to YD1113) | other results
1 | Nc1ncnc2c1ncn2[C@@H]1O[C@H](CSCCNC(=O)NCc2ccccc2)[C@@H](O)[C@H]1O [Compound 1c] |  | fold increased inhibition for PRMT3 (compared to 1b (linker 3C to 2C)): 140 fold
2 | Nc1ncnc2c1ncn2[C@@H]1O[C@H](CSCCNC(=O)NCc2ccc(F)cc2)[C@@H](O)[C@H]1O [Compound 1e] | over 10 fold | 
3 | Nc1ncnc2c1ncn2[C@@H]1O[C@H](CSCCNC(=O)Nc2ccccc2)[C@@H](O)[C@H]1O [Compound 1h] | 4 fold | 
4 | Nc1ncnc2c1ncn2[C@@H]1O[C@H](CSCCNC(=O)Nc2ccc(F)cc2)[C@@H](O)[C@H]1O [Compound 1i] | 4 fold | 
5 | Nc1ncnc2c1ncn2[C@@H]1O[C@H](CSCCNC(=O)Nc2ccc(Cl)cc2)[C@@H](O)[C@H]1O [Compound 1j] |  | fold reduction in PRMT3 inhibition (compared to 1i): 10 fold
6 | Nc1ncnc2c1ncn2[C@@H]1O[C@H](CSCCNC(=O)Nc2cccc3ccccc23)[C@@H](O)[C@H]1O [Compound 1k] |  | fold reduction in PRMT3 inhibition (compared to phenyl (1h)): over 40 fold
